Laboratory results from ChEMBL document CHEMBL1629583, “Establishment of in vitro susceptibility testing methodologies and comparative activities of piperacillin in combination with the penem {beta}-lactamase inhibitor BLI-489” (2009).

What was measured:
Format in all cases: functional
Burkholderia cepacia = experiment: Antimicrobial activity against Burkholderia cepacia clinical isolate after 18 to 22 hrs by broth microdilution method
[1] = tested on: Stenotrophomonas maltophilia; experiment: Antimicrobial activity against Stenotrophomonas maltophilia clinical isolate after 18 to 22 hrs by broth microdilution method
Pseudomonas aeruginosa = experiment: Antimicrobial activity against Pseudomonas aeruginosa clinical isolate after 18 to 22 hrs by broth microdilution method
Haemophilus influenzae [2] = experiment: Antimicrobial activity against beta-lactamase-producing Haemophilus influenzae clinical isolate after 18 to 22 hrs by broth microdilution method
Haemophilus influenzae [3] = experiment: Antimicrobial activity against beta-lactamase-negative Haemophilus influenzae clinical isolate after 18 to 22 hrs by broth microdilution method
[4] = tested on: Haemophilus parainfluenzae; experiment: Antimicrobial activity against Haemophilus parainfluenzae clinical isolate after 18 to 22 hrs by broth microdilution method
Moraxella catarrhalis = experiment: Antimicrobial activity against Moraxella catarrhalis clinical isolate after 18 to 22 hrs by broth microdilution method
Bacteroides fragilis = experiment: Antimicrobial activity against Bacteroides fragilis clinical isolate after 18 to 22 hrs by broth microdilution method
[5] = tested on: Bacteroides thetaiotaomicron; experiment: Antimicrobial activity against Bacteroides thetaiotaomicron clinical isolate after 18 to 22 hrs by broth microdilution method
Bacteroides uniformis = experiment: Antimicrobial activity against Bacteroides uniformis clinical isolate after 18 to 22 hrs by broth microdilution method
Clostridium perfringens = experiment: Antimicrobial activity against Clostridium perfringens clinical isolate after 18 to 22 hrs by broth microdilution method
[6] = tested on: Peptostreptococcus anaerobius; experiment: Antimicrobial activity against Peptostreptococcus anaerobius clinical isolate after 18 to 22 hrs by broth microdilution method
Parvimonas micra = experiment: Antimicrobial activity against Peptostreptococcus micros clinical isolate after 18 to 22 hrs by broth microdilution method
Citrobacter koseri = experiment: Antimicrobial activity against Citrobacter koseri clinical isolate after 18 to 22 hrs by broth microdilution method
Enterobacter cloacae [7] = experiment: Antimicrobial activity against Enterobacter cloacae clinical isolate after 18 to 22 hrs by broth microdilution method
Escherichia coli [8] = experiment: Antimicrobial activity against class A extended spectrum beta-lactamase- and class D OXA- producing Escherichia coli clinical isolate after 18 to 22 hrs by broth microdilution method
Escherichia coli [9] = experiment: Antimicrobial activity against class A extended spectrum beta-lactamase- producing Escherichia coli clinical isolate after 18 to 22 hrs by broth microdilution method
Escherichia coli [10] = experiment: Antimicrobial activity against AmpC beta-lactamase-producing Escherichia coli clinical isolate after 18 to 22 hrs by broth microdilution method
Citrobacter freundii [11] = experiment: Antimicrobial activity against AmpC beta-lactamase-producing Citrobacter freundii clinical isolate after 18 to 22 hrs by broth microdilution method
Klebsiella aerogenes [12] = experiment: Antimicrobial activity against AmpC beta-lactamase-producing Enterobacter aerogenes clinical isolate after 18 to 22 hrs by broth microdilution method
Enterobacter cloacae [13] = experiment: Antimicrobial activity against AmpC beta-lactamase-producing Enterobacter cloacae clinical isolate after 18 to 22 hrs by broth microdilution method
Serratia marcescens [14] = experiment: Antimicrobial activity against AmpC beta-lactamase-producing Serratia marcescens clinical isolate after 18 to 22 hrs by broth microdilution method
Klebsiella aerogenes [15] = experiment: Antimicrobial activity against Enterobacter aerogenes clinical isolate after 18 to 22 hrs by broth microdilution method
Citrobacter freundii [16] = experiment: Antimicrobial activity against Citrobacter freundii clinical isolate after 18 to 22 hrs by broth microdilution method
Klebsiella pneumoniae [17] = experiment: Antimicrobial activity against Klebsiella pneumoniae clinical isolate after 18 to 22 hrs by broth microdilution method
Klebsiella pneumoniae [18] = experiment: Antimicrobial activity against class A extended spectrum beta-lactamase- producing Klebsiella pneumoniae clinical isolate after 18 to 22 hrs by broth microdilution method
Klebsiella pneumoniae [19] = experiment: Antimicrobial activity against class A extended spectrum beta-lactamase- and class D OXA- producing Klebsiella pneumoniae clinical isolate after 18 to 22 hrs by broth microdilution method
Klebsiella pneumoniae [20] = experiment: Antimicrobial activity against AmpC- producing Klebsiella pneumoniae clinical isolate after 18 to 22 hrs by broth microdilution method
Klebsiella oxytoca = experiment: Antimicrobial activity against Klebsiella oxytoca clinical isolate after 18 to 22 hrs by broth microdilution method
Serratia marcescens [21] = experiment: Antimicrobial activity against Serratia marcescens clinical isolate after 18 to 22 hrs by broth microdilution method
Morganella morganii = experiment: Antimicrobial activity against Morganella morganii clinical isolate after 18 to 22 hrs by broth microdilution method
Proteus mirabilis = experiment: Antimicrobial activity against Proteus mirabilis clinical isolate after 18 to 22 hrs by broth microdilution method
Proteus vulgaris = experiment: Antimicrobial activity against Proteus vulgaris clinical isolate after 18 to 22 hrs by broth microdilution method
Providencia rettgeri = experiment: Antimicrobial activity against Providencia rettgeri clinical isolate after 18 to 22 hrs by broth microdilution method
Providencia stuartii = experiment: Antimicrobial activity against Providencia stuartii clinical isolate after 18 to 22 hrs by broth microdilution method
[22] = tested on: Acinetobacter calcoaceticus; experiment: Antimicrobial activity against Acinetobacter calcoaceticus clinical isolate after 18 to 22 hrs by broth microdilution method
Acinetobacter baumannii = experiment: Antimicrobial activity against Acinetobacter baumannii clinical isolate after 18 to 22 hrs by broth microdilution method
[23] = tested on: Acinetobacter haemolyticus; experiment: Antimicrobial activity against Acinetobacter haemolyticus clinical isolate after 18 to 22 hrs by broth microdilution method
Acinetobacter johnsonii = experiment: Antimicrobial activity against Acinetobacter johnsonii clinical isolate after 18 to 22 hrs by broth microdilution method
Acinetobacter junii = experiment: Antimicrobial activity against Acinetobacter junii clinical isolate after 18 to 22 hrs by broth microdilution method
Acinetobacter lwoffii = experiment: Antimicrobial activity against Acinetobacter lwoffii clinical isolate after 18 to 22 hrs by broth microdilution method

C[C@@H](O)[C@H]1C(=O)N2C(C(=O)O)=C(SCCNC=N)C[C@H]12 [IMIPENEM ANHYDROUS]
0.25 µg/mL: MIC50 [4] | MIC50 (Bacteroides fragilis) | MIC [5] | MIC50 [5] | MIC90 (Bacteroides uniformis) | MIC90 (Escherichia coli [8]) | MIC90 (Escherichia coli [10]) | MIC50 (Klebsiella pneumoniae [17]) | MIC50 (Klebsiella pneumoniae [18]) | MIC50 (Klebsiella pneumoniae [19]) | MIC50 (Klebsiella oxytoca)
32 µg/mL: MIC90 (Pseudomonas aeruginosa) | MIC90 [22] | MIC90 (Acinetobacter baumannii)
0.03 µg/mL: MIC50 [6]
0.12 µg/mL: MIC (Haemophilus influenzae [3]) | MIC (Bacteroides uniformis) | MIC50 (Bacteroides uniformis) | MIC90 (Parvimonas micra) | MIC50 (Citrobacter koseri) | MIC90 (Citrobacter koseri) | MIC (Escherichia coli [8]) | MIC50 (Escherichia coli [8]) | MIC (Escherichia coli [9]) | MIC50 (Escherichia coli [9]) | MIC (Escherichia coli [10]) | MIC50 (Escherichia coli [10])
4 µg/mL: MIC50 (Morganella morganii) | MIC90 (Morganella morganii) | MIC90 (Proteus mirabilis) | MIC90 (Proteus vulgaris)
2 µg/mL: MIC50 (Pseudomonas aeruginosa) | MIC90 (Citrobacter freundii [11]) | MIC90 (Klebsiella aerogenes [12]) | MIC90 (Enterobacter cloacae [13]) | MIC90 (Serratia marcescens [14]) | MIC90 (Klebsiella aerogenes [15]) | MIC90 (Serratia marcescens [21]) | MIC50 (Proteus mirabilis) | MIC50 (Proteus vulgaris) | MIC50 (Providencia rettgeri) | MIC90 (Providencia rettgeri) | MIC50 (Providencia stuartii) | MIC90 (Providencia stuartii)
1 µg/mL: MIC90 (Haemophilus influenzae [3]) | MIC90 [5] | MIC90 (Enterobacter cloacae [7]) | MIC50 (Klebsiella aerogenes [15]) | MIC50 (Citrobacter freundii [16]) | MIC90 (Citrobacter freundii [16]) | MIC50 (Klebsiella pneumoniae [20]) | MIC50 (Serratia marcescens [21]) | MIC50 [22] | MIC50 (Acinetobacter baumannii)
0.06 µg/mL: MIC90 (Moraxella catarrhalis) | MIC50 (Clostridium perfringens) | MIC90 (Clostridium perfringens) | MIC90 [6] | MIC50 (Parvimonas micra) | MIC50 [23] | MIC50 (Acinetobacter johnsonii) | MIC50 (Acinetobacter junii) | MIC50 (Acinetobacter lwoffii)
0.05 µg/mL: MIC50 (Haemophilus influenzae [3])
16 µg/mL: MIC90 (Burkholderia cepacia) | MIC90 (Klebsiella pneumoniae [20])
8 µg/mL: MIC50 (Burkholderia cepacia)
≤ 0.03 µg/mL: MIC (Moraxella catarrhalis) | MIC50 (Moraxella catarrhalis)
0.5 µg/mL: MIC50 (Haemophilus influenzae [2]) | MIC90 (Haemophilus influenzae [2]) | MIC90 [4] | MIC90 (Bacteroides fragilis) | MIC50 (Enterobacter cloacae [7]) | MIC90 (Escherichia coli [9]) | MIC (Citrobacter freundii [11]) | MIC50 (Citrobacter freundii [11]) | MIC (Klebsiella aerogenes [12]) | MIC50 (Klebsiella aerogenes [12]) | MIC (Enterobacter cloacae [13]) | MIC50 (Enterobacter cloacae [13]) | MIC (Serratia marcescens [14]) | MIC50 (Serratia marcescens [14]) | MIC90 (Klebsiella pneumoniae [17]) | MIC90 (Klebsiella pneumoniae [18]) | MIC90 (Klebsiella pneumoniae [19]) | MIC90 (Klebsiella oxytoca) | MIC90 [23] | MIC90 (Acinetobacter johnsonii) | MIC90 (Acinetobacter junii) | MIC90 (Acinetobacter lwoffii)
> 32 µg/mL: MIC [1] | MIC50 [1] | MIC90 [1]
